Data as given in article PMC5867665, “Targeting Multiple Effector Pathways in Pancreatic Ductal Adenocarcinoma with a G-Quadruplex-Binding Small Molecule” (Journal of Medicinal Chemistry, 2018).

What was measured:
[1] = tested on: DNA human telomeric G4 sequence 5′-d(GGGTTAGGGTTAGGGTTAGGG)-3′; assay: Quantitative G4 binding (fluorescence anisotropy and direct fluorescence titrations)
Experimental: Quantitative binding estimates as KD values were obtained from fluorescence anisotropy titrations (MM41) and direct fluorescence titrations (CM03). The DNA human telomeric G4 sequence 5′-d([…])-3′ was used to enable direct comparisons to be made with the modeling studies. Both compounds bind with nanomolar affinity to this DNA G4, with a ∼3-fold difference between MM41 (20 ± 2 nM) and CM03 (67 ± 4 nM).
Human telomeric DNA G4 was prepared using oligonucleotides purchased from Integrated DNA Technologies (Coralville, IA, USA). The DNA purity and sequence was verified by mass spectrometry. Desalted oligonucleotide sequences were initially suspended in 150 mM NH4OAc (pH 6.8) in nuclease-free water to yield a final concentration of 1 mM and determined spectroscopically at 260 nm using the nearest-neighbor method. […]
Fluorescence anisotropy measurements were obtained on a Variant Cary Eclipse fluorescence spectrophotometer (Agilent Technologies, Santa Clara, CA, USA) equipped with a polarization attachment. […]
To determine dissociation constants, MM41 was added to a 3 mL volume of the experimental buffer (50 mM KCl, 10 mM Tris-HCl, 1 mM EDTA in nuclease-free water at 25 °C, pH 7.3) in a quartz fluorescence cuvette at a fixed concentration of 50 nM, and G4 was titrated into the cuvette. […] Each set of measurements were taken from a 50 s average reading measurement (PMT = 630 V). […]

PDAC MIA PaCa-2 cells = assay: 96 h SRB growth inhibition assay, MIA PaCa-2; format: cell-based, human; details: 96 h SRB IC50
Experimental: (§1) Compounds were screened with a 96 h SRB (sulforhodamine B) assay for their antiproliferative activity in a panel of human cancer cell lines comprising lung adenocarcinoma (A549), breast adenocarcinoma (MCF7), and PDAC (MIA PaCa-2 and PANC-1) cell lines, as well as a fetal lung fibroblast-like nononcogenic control cell line (WI-38) (Figure 1f). […] Gemcitabine is also active in these lines at low nanomolar levels, although less so in MIA PaCa-2 (IC50 19 ± 5 nM) and more so in BX-PC3 cells (6 ± 2 nM).
(§2) All cell lines were purchased from ATCC and maintained in appropriate medium supplemented with 10% fetal bovine serum (Invitrogen, UK), 2 mM L-glutamine (Invitrogen, Netherlands), and other components as specified by the suppliers. Cell lines were maintained at 37 °C, 5% CO2, and routinely passaged. Drugs were dissolved in H2O and filtered through 0.22 μm pore-size filter units (stock 10 mM) before addition to appropriate cell line media. Cellular growth inhibition was measured using the sulforhodamine B (SRB) assay in 96-well plates as described previously.[78] The 50% inhibitory concentrations (IC50) were determined by taking the mean absorbance at 540 nm for each drug concentration expressed as a percentage of the absorbance of untreated control wells.

[2] = tested on: fetal lung fibroblast-like nononcogenic control cell line (WI-38); assay: 96 h SRB growth inhibition assay, WI-38; format: cell-based, human
Experimental: as §1, §2

hERG = hERG (Homo sapiens, UniProt Q12809); assay: hERG liability (unpublished data)
Sequence of hERG (Q12809 whole entry): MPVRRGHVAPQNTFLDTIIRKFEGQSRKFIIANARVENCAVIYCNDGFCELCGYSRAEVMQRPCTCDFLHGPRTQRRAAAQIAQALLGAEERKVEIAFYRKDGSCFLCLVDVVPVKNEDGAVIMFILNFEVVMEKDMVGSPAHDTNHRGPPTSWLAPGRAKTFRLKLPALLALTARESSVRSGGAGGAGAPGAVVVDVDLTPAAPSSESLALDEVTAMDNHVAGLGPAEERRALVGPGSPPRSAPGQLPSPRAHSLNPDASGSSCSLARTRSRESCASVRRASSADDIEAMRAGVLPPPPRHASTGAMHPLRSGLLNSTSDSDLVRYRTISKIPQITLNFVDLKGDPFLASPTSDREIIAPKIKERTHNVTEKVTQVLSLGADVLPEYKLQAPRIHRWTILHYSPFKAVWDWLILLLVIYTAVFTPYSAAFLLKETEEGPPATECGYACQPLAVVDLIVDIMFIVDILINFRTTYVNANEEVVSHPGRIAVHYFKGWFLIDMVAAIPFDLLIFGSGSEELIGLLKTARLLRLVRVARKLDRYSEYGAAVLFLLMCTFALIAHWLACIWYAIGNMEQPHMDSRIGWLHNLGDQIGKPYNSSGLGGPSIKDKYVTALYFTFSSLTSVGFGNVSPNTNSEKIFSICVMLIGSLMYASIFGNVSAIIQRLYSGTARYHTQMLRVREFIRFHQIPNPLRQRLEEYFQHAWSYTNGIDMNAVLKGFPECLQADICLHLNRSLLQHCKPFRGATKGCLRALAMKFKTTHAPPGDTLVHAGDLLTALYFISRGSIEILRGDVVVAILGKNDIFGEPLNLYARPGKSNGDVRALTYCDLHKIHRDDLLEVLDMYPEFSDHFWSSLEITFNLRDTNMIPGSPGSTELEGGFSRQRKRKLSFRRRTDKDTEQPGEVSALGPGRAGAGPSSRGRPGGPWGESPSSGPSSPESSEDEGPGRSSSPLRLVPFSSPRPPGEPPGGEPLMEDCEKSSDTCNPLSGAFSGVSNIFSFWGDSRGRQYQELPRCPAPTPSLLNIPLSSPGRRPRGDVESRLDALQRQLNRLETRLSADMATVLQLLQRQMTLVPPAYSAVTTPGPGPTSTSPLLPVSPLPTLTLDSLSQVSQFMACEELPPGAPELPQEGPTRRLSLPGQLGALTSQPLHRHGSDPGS

[3] = Aqueous solubility and pH of the salt; format: physicochemical
From the text: The synthetic approach to the trisubstituted series adapts previously published procedures to simplify purification and increase yields of both intermediates and final compounds (Scheme 1). 5,5-Dimethyl-1,3-dibromohydantoin was used for the regioselective bromination of the starting material, enabling more efficient and convenient purification. The separation of final products was achieved using column chromatography, giving a 26% overall yield for CM03.
CM03 was then converted to a mixed hydrochloride/formate salt in order to enhance its aqueous solubility. At a concentration of 5 mg/mL, the pH of the CM03 salt solution was 6.95.

Question: For `O=C1c2ccc3c4c(c(NCCN5CCCC5)cc(c24)C(=O)N1CCCN1CCOCC1)C(=O)N(CCCN1CCOCC1)C3=O` [CM03, 2,7-bis(3-morpholinopropyl)-4-((2-(pyrrolidin-1-yl)ethyl)amino)benzo[lmn][3,8]phenanthroline-1,3,6,8(2H,7H)-tetraone], which “difference in KD between MM41 and CM03” value [1] is on record?
Answer: Its value is roughly 3 fold.

Question: And the “selectivity for MIA PaCa-2 compared to MCF-7 cells” value (PDAC MIA PaCa-2 cells)?
Answer: Its value is greater than 20 fold.

Question: And the “less activity toward the WI-38 cell line (vs MM41)” value [2]?
Answer: Its value is greater than 4 fold.

Question: What about the hERG liabilities (hERG) of the same molecule?
Answer: The hERG liabilities was “neither MM41 nor CM03 show significant hERG liabilities”.

Question: What about the “pH of mixed chloride/formate salt” value [3] of the same molecule?
Answer: The value was 6.9.

Question: And the “pH of the CM03 salt solution” value ([3]; concentration of 5 mg/mL, mixed hydrochloride/formate salt)?
Answer: Its value is 6.95.
